Results taken from ChEMBL document CHEMBL1201862, “PubChem BioAssay data set” (2004).
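All cell lines were grown in 96-well plates and treated with compound for 48 hours. GI50 marks 50% less growth.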 Active and inactive are the calls of the source. No stated cut-off is given here; in the data, active = GI50 up to about 1.1 µM and inactive = higher.

Assays:
Test in all cases: growth of human tumour cells (NCI), 48 h
[1] = system: RXF 393
[2] = system: SK-OV-3
[3] = system: T47D
[4] = system: UACC-62
[5] = system: COLO 205
[6] = system: NCI-H23
[7] = system: MCF7
[8] = system: A498
[9] = system: Malme-3M
[10] = system: UO-31
[11] = system: RPMI-8226
[12] = system: NCI-H226
[13] = system: NCI-H522
[14] = system: ACHN
[15] = system: MDA-MB-231
[16] = system: SK-MEL-28
[17] = system: HL-60
[18] = system: LOX IMVI
[19] = system: SK-MEL-5
[20] = system: NCI/ADR-RES
[21] = system: HOP-62
[22] = system: UACC-257
[23] = system: 786-0
[24] = system: HOP-92
[25] = system: U-251
[26] = system: OVCAR-8
[27] = system: CAKI-1
[28] = system: SNB-19
[29] = system: HCT-116
[30] = system: MDA-MB-435
[31] = system: EKVX
[32] = system: SF-268
[33] = system: A549
[34] = system: Hs-578T
[35] = system: TK-10
[36] = system: SK-MEL-2
[37] = system: OVCAR-4
[38] = system: BT-549
[39] = system: M14
[40] = system: KM12
[41] = system: HCT-15
[42] = system: SN12C
[43] = system: HCC 2998
[44] = system: SNB-75
[45] = system: HT-29
[46] = system: SF-295
[47] = system: OVCAR-5
[48] = system: CCRF-CEM
[49] = system: PC-3
[50] = system: MDA-N
[51] = system: DU-145
[52] = system: OVCAR-3
[53] = system: SW-620
[54] = system: MOLT-4
[55] = system: NCI-H460
[56] = system: IGROV-1
[57] = system: K562
[58] = system: SF-539

For `CC(=O)Oc1ccc2c3c1[C@@H]1O[C@@H]1c1cccc(c1-3)[C@@H]1O[C@H]21`, the GI50 [1] was 1360 nM (inactive), the GI50 [2] was 3440 nM (inactive) and the GI50 [3] was 2140 nM (inactive). The GI50 [4] was 1870 nM (inactive), the GI50 [5] was 1990 nM (inactive) and the GI50 [6] was 1630 nM (inactive). The GI50 [7] was 2550 nM (inactive), the GI50 [8] was 2190 nM (inactive) and the GI50 [9] was 1860 nM (inactive). For the same compound, the GI50 [10] was 1520 nM (inactive), the GI50 [11] was 1370 nM (inactive) and the GI50 [12] was 18200 nM (inactive). The GI50 [13] was 1470 nM (inactive), the GI50 [14] was 1840 nM (inactive) and the GI50 [15] was 2020 nM (inactive). For the same compound, the GI50 [16] was 1960 nM (inactive), the GI50 [17] was 883 nM (active) and the GI50 [18] was 962 nM (active). The GI50 [19] was 1610 nM (inactive), the GI50 [20] was 1820 nM (inactive) and the GI50 [21] was 2010 nM (inactive). The GI50 [22] was 2430 nM (inactive), the GI50 [23] was 1480 nM (inactive) and the GI50 [24] was 1810 nM (inactive). The GI50 [25] was 2120 nM (inactive), the GI50 [26] was 1540 nM (inactive) and the GI50 [27] was 1590 nM (inactive). The GI50 [28] was 3010 nM (inactive), the GI50 [29] was 1660 nM (inactive) and the GI50 [30] was 1140 nM (inactive). The GI50 [31] was 2020 nM (inactive), the GI50 [32] was 2110 nM (inactive) and the GI50 [33] was 2320 nM (inactive). For the same compound, the GI50 [34] was 2870 nM (inactive), the GI50 [35] was 2080 nM (inactive) and the GI50 [36] was 2370 nM (inactive). For the same compound, the GI50 [37] was 2030 nM (inactive), the GI50 [38] was 1870 nM (inactive) and the GI50 [39] was 1720 nM (inactive). The GI50 [40] was 2050 nM (inactive), the GI50 [41] was 1660 nM and the GI50 [42] was 1600 nM (inactive). For the same compound, the GI50 [43] was 2000 nM (inactive), the GI50 [44] was 1630 nM (inactive) and the GI50 [45] was 1810 nM (inactive). The GI50 [46] was 1940 nM (inactive), the GI50 [47] was 1860 nM (inactive) and the GI50 [48] was 601 nM (active). For the same compound, the GI50 [49] was 2330 nM (inactive), the GI50 [50] was 1840 nM (inactive) and the GI50 [51] was 1910 nM (inactive). The GI50 [52] was 2000 nM (inactive) and the GI50 [53] was 1140 nM (inactive).
For `COc1cc(C2c3[nH]c4ccccc4c3[C@@H](Nc3ccc(F)cc3)[C@H]3COC(=O)N23)cc(OC)c1O` (some centres undefined), the GI50 [2] was 1100 nM (active), the GI50 [3] was 2250 nM (inactive) and the GI50 [4] was 1370 nM (inactive). The GI50 [6] was 1420 nM (inactive), the GI50 [7] was 622 nM (active) and the GI50 [8] was 2130 nM (inactive). The GI50 [9] was 2490 nM (inactive), the GI50 [54] was 287 nM (active) and the GI50 [10] was 1090 nM (active). The GI50 [55] was 957 nM (active), the GI50 [12] was 815 nM (active) and the GI50 [14] was 248 nM (active). For the same compound, the GI50 [15] was 3440 nM (inactive), the GI50 [16] was 2010 nM (inactive) and the GI50 [18] was 1210 nM (inactive). The GI50 [19] was 1140 nM (inactive), the GI50 [20] was 8130 nM (inactive) and the GI50 [21] was 1010 nM (active). For the same compound, the GI50 [22] was 3770 nM (inactive), the GI50 [24] was 2260 nM (inactive) and the GI50 [25] was 1450 nM (inactive). For the same compound, the GI50 [26] was 2700 nM (inactive), the GI50 [27] was 828 nM (active) and the GI50 [28] was 1260 nM (inactive). For the same compound, the GI50 [29] was 1890 nM (inactive), the GI50 [30] was 2500 nM (inactive) and the GI50 [56] was 1320 nM (inactive). The GI50 [31] was 2550 nM (inactive), the GI50 [32] was 1550 nM (inactive) and the GI50 [33] was 465 nM (active). The GI50 [34] was 96.2 nM (active), the GI50 [35] was 1970 nM (inactive) and the GI50 [37] was 2550 nM (inactive). The GI50 [38] was 1360 nM (inactive), the GI50 [39] was 2020 nM (inactive) and the GI50 [40] was 1910 nM (inactive). The GI50 [41] was 1660 nM, the GI50 [57] was 1450 nM (inactive) and the GI50 [42] was 1350 nM (inactive). The GI50 [43] was 1580 nM (inactive), the GI50 [44] was 1690 nM (inactive) and the GI50 [45] was 3120 nM (inactive). The GI50 [46] was 794 nM (active), the GI50 [47] was 1790 nM (inactive) and the GI50 [58] was 1260 nM (inactive). The GI50 [48] was 296 nM (active), the GI50 [49] was 1910 nM (inactive) and the GI50 [50] was 2300 nM (inactive). For the same compound, the GI50 [51] was 759 nM (active), the GI50 [52] was 1920 nM (inactive) and the GI50 [53] was 1230 nM (inactive).
